How the values were obtained:
[1] = test system: human dermal fibroblast cell lines obtained from elderly patients; assay: Effect of CPP mimicking peptides on synthesis of collagen I, collagen II and elastin in aged dermal fibroblasts (Western blot); format: cell-based; settings: peptide 10 μM
Method: The ability to interfere interaction of TAF4, BRG1 and N-CoR1 with the active transcriptional complex and stimulate synthesis of collagen I, collagen II and elastin was tested on 2 human dermal fibroblast cell lines obtained from elderly patients. It has been shown that: • TAF4 suppression using siRNA stimulates expression of numerous genes in embryonic fibroblasts. (Mengus G, Fadloun A, Kobi D, Thibault C, Perletti L, Michel I, Davidson I. 2005. TAF4 inactivation in embryonic fibroblasts activates TGFbeta signaling and autocrine growth. EMBO J. 2005 Aug. 3; 24(15):2753-67.) • Brg1 inhibits numerous genes during development. (Inayoshi Y, Kaneoka H, Machida Y, Terajima M, Dohda T, Miyake K, Iijima S. 2005. Repression of GR-mediated expression of the tryptophan oxygenase gene by the SWI/SNF complex during liver development. J Biochem (Tokyo). 2005 October; 138(4):457-65) • N-CoR1 plays a crucial role in the repressive activity of diverse transcription factors (J. Frasor, J. M. Danes, C. C. Funk and B. S. Katzenellenbogen. 2005. Estrogen down-regulation of the corepressor N-CoR: Mechanism and implications for estrogen derepression of N-CoR-regulated genes. PNAS. vol. 102 no. 37, 13153-13157.) • SMAD7 functions as a component of negative feedback regulation that controls timining and extent of TGFbeta signaling (Zhu X, Topouzis S, Liang L F, Stotish RL. Myostatin signaling through Smad2, Smad3 and Smad4 is regulated by the inhibitory Smad7 by a negative feedback mechanism. Cytokine. 2004 Jun. 21; 26(6):262-72.) • TAF10 is one of the TATA box-binding protein-associated factors (TAFs), which constitute the TFIID complex.
(§1) Human dermal fibroblasts were cultured in standard conditions (DMEM, 10% FCS, penicillin+streptomycin) and used in experiments after three passages in the laboratory. Cells were grown in 24 well plates, each treatment in triplicates. Cells were plated 16 hours prior treatments started. Peptides were added to the media, and media was changed every day during 7 day experiment. CPP concentration was 10 μM.
(§2) Western blot using antibodies against fibronectin, thrombospondin, collagen I, collagen II, collagen 4, elastin, MMP1, MMP2, MMP7 and TIMP1 were performed using standard protocols. Cells were lysed in SDS loading buffer and separated on 5% SDS PAGE following transfer onto PVD membrane using semidry blotting. Antibodies were diluted 1:2000 and incubated for 2 hours followed by secondary antibody conjugated to alkaline phosphatase. Antibody binding was visualized using one step BCIP reagent (Pierce).

[2] = test system: human dermal fibroblasts; assay: Whole genome gene expression analysis (Affymetrix GeneChip Human Gene 1.0 ST Array); format: cell-based; settings: peptide 10 μM, 24 hour
Method: Human dermal fibroblasts were cultured in standard conditions (DMEM, 10% FCS, penicillin+streptomycin) and used in experiments after three passages in the laboratory. Cells were grown in 60 mm plates, each treatment in duplicates. Cells were plated 16 hours prior treatments started. Peptides (10 μM) were added to the media, and cells were collected for RNA isolation 24 hour later.
Total RNA was purified by using 4PCRmini kit (Ambion). First-strand cDNAs were synthesized with Superscript III reverse transcriptase (Invitrogen, USA) and 5 μg of total RNA using oligo d(T) priming in a final reaction volume of 50 μL and used to generate fluorescently labeled probes for whole genome gene expression analysis. Whole genome gene expression analysis was conducted using Affymetrix GeneChip™ Human Gene 1.0 ST Array.

[3] = test system: human dermal fibroblasts; assay: Effect of peptides on expression of growth factors, protein (Western blot); format: cell-based; settings: peptide 10 μM
Method: as §1, with “12” for “24”
as §2, with “Western blots” for “Western blot”, “against growth factors” for “against fibronectin, thrombospondin, collagen I, collagen II, collagen 4, elastin, MMP1, MMP2, MMP7 and TIMP1”

[4] = test system: dermal fibroblasts; assay: Effect of interfering peptides on expression of ECM components, mRNA level (RT-PCR); format: cell-based, human; settings: peptide 1 μM, 24 hours
Method: as §1
(§3) Total RNA from various human tissues was purified using RNAwiz (Ambion, USA) and subjected to subsequent DNase I treatment using the DNA-Free kit (Ambion). Total RNA from cancer cells was purified by using 4PCRmini kit (Ambion). First-strand cDNAs were synthesized with Superscript III reverse transcriptase (Invitrogen, USA) and 5 μg of total RNA using oligo d(T) priming in a final reaction volume of 50 μL
(§4) The cDNA was amplified by PCR using the 2,5U Hot-Firepol (Solis BioDyne, Estonia) and buffer Yellow (Naxo, Estonia). Reaction was performed in a 10 ul volume, using 0.5 ul cDNA as a template. Following primer sets were designed for this study:
(§5) The cells were treated with peptides (1 μM) 24 hours for the mRNA analysis and 72 hours for protein analysis. All experiments were done in triplicates. Variation between replicates was less that 15%.

[5] = test system: human dermal fibroblasts; assay: Effect of peptides on expression of growth factors, mRNA (RT-PCR); format: cell-based
Method: as §1, with “12” for “24”
as §3
as §4, with “Primer” for “Following primer”, “designed to specifically amplify the nucleic acid sequence for the corresponding growth factor” for “designed”, “study: […]” for “study:”

[6] = test system: dermal fibroblasts; assay: Effect of interfering peptides on expression of ECM components, protein level (Western blot); format: cell-based, human
Method: as §1, §2, §5

[7] = fibroblast 1 (first block of Table 1)
[8] = second block of Table 1 (also fibroblast 1)

Sequence: RPKKRKVRRRLATNSELVGTLTRSCKDETFLL (synethetic amino acid sequence) [TAF4.1, CPP-mimicking peptide]
- collagen I, fold increase after 7 days [1, 7]: 5 fold
- collagen II, fold increase after 7 days [1, 7]: 3 fold
- elastin, fold increase after 7 days [1, 7]: 4 fold
- collagen I, fold increase after 7 days [1, 8]: 2 fold
- collagen II, fold increase after 7 days [1, 8]: 4 fold
- elastin, fold increase after 7 days [1, 8]: 2 fold

Sequence: RPKKRKVRRRMGLGKTIQTIALITYLMEHKRINGP [BRG1.1, CPP-mimicking peptide]
- collagen I, fold increase after 7 days [1, 7]: 7 fold
- collagen II, fold increase after 7 days [1, 7]: 2 fold
- elastin, fold increase after 7 days [1, 7]: 3 fold
- collagen I, fold increase after 7 days [1, 8]: 3 fold
- collagen II, fold increase after 7 days [1, 8]: 5 fold
- elastin, fold increase after 7 days [1, 8]: 6 fold

Sequence: RPKKRKVRRRGQLNSDHKSQLVEKVRLKIGCGIQL [SMAD7.1, CPP-mimicking peptide]
- Number of genes with altered expression: expression stimulated 2-5 fold [2]: 986
- Number of genes with altered expression: expression stimulated more than 5 fold [2]: 198
- Number of genes with altered expression: expression suppressed 2-5 fold [2]: 1011
- Number of genes with altered expression: expression suppressed more than 5 fold [2]: 124
- CTGF protein, fold stimulation of expression compared to control [3]: 15 fold
- HGF protein, fold stimulation of expression compared to control [3]: 1.7 fold
- IGF-1 protein, fold stimulation of expression compared to control [3]: 1 fold
- VEGF protein, fold stimulation of expression compared to control [3]: 1.3 fold
- b-FGF protein, fold stimulation of expression compared to control [3]: 1 fold
- MMP1 mRNA, fold stimulation [4]: 3.6 fold
- MMP7 mRNA, fold stimulation [4]: 2.9 fold
- MMp2 mRNA, fold stimulation [4]: 1.9 fold
- TIMP mRNA, fold stimulation [4]: 4.3 fold
- collagen IV mRNA, fold stimulation [4]: 5.4 fold
- collagenI mRNA, fold stimulation [4]: 7.9 fold
- elastin mRNA, fold stimulation [4]: 7.7 fold
- fibronectin mRNA, fold stimulation [4]: 8.7 fold
- thrombospondin mRNA, fold stimulation [4]: 6.9 fold
- CTGF mRNA, fold stimulation of expression compared to control ([5]; peptide 10 μM): 27 fold
- HGF mRNA, fold stimulation of expression compared to control ([5]; peptide 10 μM): 8 fold
- IGF-1 mRNA, fold stimulation of expression compared to control ([5]; peptide 10 μM): 4 fold
- VEGF mRNA, fold stimulation of expression compared to control ([5]; peptide 10 μM): 4 fold
- b-FGF mRNA, fold stimulation of expression compared to control ([5]; peptide 10 μM): 2 fold
- expression of CTGF (in words) ([5]; protein and mRNA): stimulate expression of CTGF significantly
- expression of components of ECM (in words) ([6]; dermal fibroblasts in vitro, protein and mRNA): stimulate expression of components of ECM
- CollagenI protein, fold stimulation ([6]; peptide 1 μM, 72 hours): 2.9 fold
- Elastin protein, fold stimulation ([6]; peptide 1 μM, 72 hours): 2.6 fold
- Fibronectin protein, fold stimulation ([6]; peptide 1 μM, 72 hours): 3.1 fold
- MMP1 protein, fold stimulation ([6]; peptide 1 μM, 72 hours): 1.9 fold
- MMP2 protein, fold stimulation ([6]; peptide 1 μM, 72 hours): 1.1 fold
- MMP7 protein, fold stimulation ([6]; peptide 1 μM, 72 hours): 1.9 fold
- TIMP protein, fold stimulation ([6]; peptide 1 μM, 72 hours): 1.3 fold
- collagen IV protein, fold stimulation ([6]; peptide 1 μM, 72 hours): 2.1 fold
- thrombospondin protein, fold stimulation ([6]; peptide 1 μM, 72 hours): 3.2 fold

Reference: US20080306001A1, “TRANSCRIPTIONAL MODULATION OF EXTRACELLULAR MATRIX (ECM) OF DERMAL FIBROBLASTS” (priority 2007, published 2008)
